Test results: article PMC2229623 (The Journal of General Physiology, 2004)

Tests used:
CFTR [1] = molecular target: T1, CFTR (Homo sapiens, UniProt P13569); experiment: Apical Cl− current in CFTR-expressing FRT cells; format: cell-based; conditions: for Ki: Ki is compound concentration giving 50% inhibition of apical membrane Cl− current in CFTR-expressing FRT cells; for % inhibition at 50 μM: apical membrane Cl− current, FRT cells
MDR-1 = MDR-1 (Homo sapiens, UniProt P08183); experiment: Rhodamine 123 uptake in cells overexpressing MDR-1; format: cell-based; conditions: 100 μM
Sequence of MDR-1 (P08183 whole entry): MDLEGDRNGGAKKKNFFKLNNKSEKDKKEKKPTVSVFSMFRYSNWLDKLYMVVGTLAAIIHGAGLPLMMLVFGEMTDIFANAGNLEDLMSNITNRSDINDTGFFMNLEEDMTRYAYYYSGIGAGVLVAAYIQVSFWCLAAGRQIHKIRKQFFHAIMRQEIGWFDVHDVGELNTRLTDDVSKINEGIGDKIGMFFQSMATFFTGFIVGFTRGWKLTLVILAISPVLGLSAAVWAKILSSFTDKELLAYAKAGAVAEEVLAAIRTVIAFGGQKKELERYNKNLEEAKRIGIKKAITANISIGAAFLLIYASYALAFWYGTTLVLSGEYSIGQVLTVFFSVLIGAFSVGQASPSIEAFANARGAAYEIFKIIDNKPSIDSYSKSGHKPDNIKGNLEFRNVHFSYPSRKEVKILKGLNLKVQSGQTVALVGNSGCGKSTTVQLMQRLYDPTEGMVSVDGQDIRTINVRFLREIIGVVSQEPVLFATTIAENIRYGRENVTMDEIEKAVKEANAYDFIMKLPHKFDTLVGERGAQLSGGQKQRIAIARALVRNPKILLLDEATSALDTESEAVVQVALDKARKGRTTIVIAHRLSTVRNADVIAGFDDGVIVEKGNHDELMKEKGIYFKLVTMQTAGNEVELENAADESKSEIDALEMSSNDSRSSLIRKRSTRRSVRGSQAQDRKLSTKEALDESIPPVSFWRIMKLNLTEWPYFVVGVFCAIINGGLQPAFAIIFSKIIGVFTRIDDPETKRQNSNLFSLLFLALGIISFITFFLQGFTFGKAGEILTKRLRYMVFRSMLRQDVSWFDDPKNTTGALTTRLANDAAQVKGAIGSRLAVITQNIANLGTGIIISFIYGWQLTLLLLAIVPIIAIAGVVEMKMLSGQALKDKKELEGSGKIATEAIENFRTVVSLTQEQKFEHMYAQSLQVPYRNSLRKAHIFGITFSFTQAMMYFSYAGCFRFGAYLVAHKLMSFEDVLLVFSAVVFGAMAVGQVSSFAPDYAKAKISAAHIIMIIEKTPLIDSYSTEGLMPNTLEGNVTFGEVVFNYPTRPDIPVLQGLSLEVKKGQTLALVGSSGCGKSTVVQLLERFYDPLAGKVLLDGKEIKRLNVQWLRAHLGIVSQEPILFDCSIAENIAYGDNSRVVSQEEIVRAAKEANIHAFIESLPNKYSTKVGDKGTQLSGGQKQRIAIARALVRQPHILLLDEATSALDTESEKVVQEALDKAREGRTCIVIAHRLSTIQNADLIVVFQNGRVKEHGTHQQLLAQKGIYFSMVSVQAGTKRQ

CFTR [2] = format: in vivo; conditions: 100 μM in all solutions; mice
CFTR [3] = molecular target: T1, CFTR; conditions: read-out: concentration giving 50% inhibition of CFTR Cl− channel function; intact cells, depending on cell type and membrane potential; ref Ma et al., 2002a; Taddei et al., 2004; cited from earlier work

T1 sequence (P13569 whole entry): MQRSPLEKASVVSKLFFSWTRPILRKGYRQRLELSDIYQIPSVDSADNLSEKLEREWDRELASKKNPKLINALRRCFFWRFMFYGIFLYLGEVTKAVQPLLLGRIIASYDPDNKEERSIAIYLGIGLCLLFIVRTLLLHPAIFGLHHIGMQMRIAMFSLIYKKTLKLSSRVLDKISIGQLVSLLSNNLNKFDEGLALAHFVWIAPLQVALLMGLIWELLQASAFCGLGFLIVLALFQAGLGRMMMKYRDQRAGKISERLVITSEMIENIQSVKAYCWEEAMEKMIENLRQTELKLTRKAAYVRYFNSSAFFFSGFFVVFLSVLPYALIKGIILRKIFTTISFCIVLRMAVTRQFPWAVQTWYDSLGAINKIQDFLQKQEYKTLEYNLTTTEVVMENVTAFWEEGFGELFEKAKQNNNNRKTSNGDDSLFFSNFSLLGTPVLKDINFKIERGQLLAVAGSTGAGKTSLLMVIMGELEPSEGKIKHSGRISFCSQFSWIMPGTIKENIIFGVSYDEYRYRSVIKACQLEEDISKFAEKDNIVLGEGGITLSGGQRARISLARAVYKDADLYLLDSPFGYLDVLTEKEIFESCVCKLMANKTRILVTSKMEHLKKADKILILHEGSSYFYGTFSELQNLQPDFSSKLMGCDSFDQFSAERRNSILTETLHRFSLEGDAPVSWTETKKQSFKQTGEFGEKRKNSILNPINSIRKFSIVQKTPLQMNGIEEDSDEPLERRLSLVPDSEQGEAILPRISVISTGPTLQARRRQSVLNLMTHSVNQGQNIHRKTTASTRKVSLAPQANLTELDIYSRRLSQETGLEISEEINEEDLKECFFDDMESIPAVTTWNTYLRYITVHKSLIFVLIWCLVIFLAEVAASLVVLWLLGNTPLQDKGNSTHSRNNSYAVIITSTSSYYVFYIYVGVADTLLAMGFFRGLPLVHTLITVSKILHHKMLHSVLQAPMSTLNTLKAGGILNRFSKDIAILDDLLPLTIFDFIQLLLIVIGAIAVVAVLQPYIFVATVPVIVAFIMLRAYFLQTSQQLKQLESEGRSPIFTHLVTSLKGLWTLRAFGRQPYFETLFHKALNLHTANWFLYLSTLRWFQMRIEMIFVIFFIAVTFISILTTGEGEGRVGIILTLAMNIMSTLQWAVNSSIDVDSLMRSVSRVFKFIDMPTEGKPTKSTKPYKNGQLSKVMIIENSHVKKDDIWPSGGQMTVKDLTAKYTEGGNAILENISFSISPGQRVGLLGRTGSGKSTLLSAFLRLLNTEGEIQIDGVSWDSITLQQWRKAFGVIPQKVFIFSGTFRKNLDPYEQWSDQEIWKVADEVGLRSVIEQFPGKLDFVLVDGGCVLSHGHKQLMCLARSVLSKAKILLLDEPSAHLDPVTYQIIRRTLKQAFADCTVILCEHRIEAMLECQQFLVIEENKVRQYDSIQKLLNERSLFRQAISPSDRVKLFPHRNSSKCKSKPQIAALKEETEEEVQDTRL

Ki (CFTR [1])	Compound	also measured
25 to 50 µM	O=C(CNc1ccc(Cl)cc1)NN=Cc1ccc(O)cc1O [GlyH-123]	–
> 50 µM	O=C(NN=Cc1cc(Br)c(O)c(Br)c1O)C(=O)Nc1ccc2ccccc2c1 [OxaH-203]	–
10 µM	O=C(NNCc1cc(Br)c(O)c(Br)c1O)C(=O)Nc1ccc2ccccc2c1 [OxaH-303]	% inhibition at 50 μM (CFTR [1]): 70%
12 µM	O=C(NNCc1cc(Br)c(O)c(Br)c1)C(=O)Nc1ccc2ccccc2c1 [OxaH-304]	% inhibition at 50 μM (CFTR [1]): 78%
–	COc1ccc(CCN(C)CCCC(C#N)(c2ccc(OC)c(OC)c2)C(C)C)cc1OC (stereo not shown) [verapamil]	increase of rhodamine 123 incorporation (MDR-1): greater than fivefold
–	O=S(=O)(O)c1cc(N=C=S)ccc1C=Cc1ccc(N=C=S)cc1S(=O)(=O)O [DIDS]	inhibition of the (CFTR-independent) hyperpolarization produced by low Cl− (CFTR [2]): partial inhibition
10 µM	Cc1ccc(NCC(=O)NN=Cc2cc(Br)c(O)c(Br)c2O)cc1 [GlyH-116]	–
4.7 µM	CC(=NNC(=O)CNc1ccc2ccccc2c1)c1cc(Br)c(O)c(Br)c1 [GlyH-109]	–
25 to 50 µM	O=C(CNc1ccc2cc3ccccc3cc2c1)NN=Cc1cc(Br)c(O)c(Br)c1O [GlyH-124]	–
3 µM	CC(=NNC(=O)C(=O)Nc1ccc2ccccc2c1)c1cc(Br)c(O)c(Br)c1O [OxaH-112]	–
20 µM	COc1c(Br)cc(C=NNC(=O)CNc2ccc3ccccc3c2)c(O)c1Br [GlyH-103]	% inhibition at 50 μM (CFTR [1]): 56%
25 to 50 µM	O=C(CNc1ccc2ccccc2c1)NN=Cc1ccc(Br)cc1 [GlyH-120]	–
6.7 µM	O=C(CNc1ccc(Cl)cc1)NN=Cc1cc(Br)c(O)c(Br)c1O [GlyH-115]	–
25 to 50 µM	Cc1ccccc1NCC(=O)NN=Cc1cc(Br)c(O)c(Br)c1O [GlyH-117]	–
25 to 50 µM	O=C(CNc1ccc2cc3ccccc3cc2c1)NN=Cc1cc(Br)c(O)c(Br)c1 [GlyH-125]	–
17 µM	O=C(COc1ccc2ccccc2c1)NN=Cc1cc(Br)c(O)c(Br)c1 [AceH-402]	% inhibition at 50 μM (CFTR [1]): 86%
25 to 50 µM	O=C(CNc1cccc2ccccc12)NN=Cc1ccc(O)c(Br)c1 [GlyH-118]	–
–	O=C(O)c1ccc(/C=C2\SC(=S)N(c3cccc(C(F)(F)F)c3)C2=O)cc1 [CFTRinh-172]	IC50 (CFTR [3]): 0.3 to 3 µM
5 µM	O=C(CNc1ccc(Cl)cc1)NN=Cc1cc(Br)c(O)c(Br)c1 [GlyH-114]	–
21 µM	O=C(COc1ccc2ccccc2c1)NN=Cc1cc(Br)c(O)c(Br)c1O [AceH-401]	% inhibition at 50 μM (CFTR [1]): 84%
> 50 µM	O=C(NNC(=O)c1cc(Br)c(O)c(Br)c1)C(=O)Nc1ccc2ccccc2c1 [OxaH-204]	–

Compound	Ki (CFTR [1])	also measured
O=C(CNc1ccc2ccccc2c1)NNC(=O)c1cc(Br)c(O)c(Br)c1 [GlyH-202, 3,5-Dibromo-4-hydroxy-[2-(2-naphthalenamine)aceto] Benzoic Acid Hydrazide]	22 µM	% inhibition at 50 μM (CFTR [1]): 57%
